Test results: US20250090540A1, “PI3K-ALPHA INHIBITORS AND METHODS OF USE THEREOF” (Relay Therapeutics, Inc., priority 2021, published 2025)

What was measured:
cells = conditions: Homo sapiens, MCF-10A, read-out: MCF10A I50
H1047R PIK3CA enzyme = H1047R PIK3CA enzyme (Homo sapiens, UniProt P42336, H1047R); assay: ADP-Glo Biochemical PIK3CA Kinase Assay; conditions: ADP-Glo biochemical PIK3CA kinase assay
Chain of H1047R PIK3CA enzyme (P42336 whole entry H1047R): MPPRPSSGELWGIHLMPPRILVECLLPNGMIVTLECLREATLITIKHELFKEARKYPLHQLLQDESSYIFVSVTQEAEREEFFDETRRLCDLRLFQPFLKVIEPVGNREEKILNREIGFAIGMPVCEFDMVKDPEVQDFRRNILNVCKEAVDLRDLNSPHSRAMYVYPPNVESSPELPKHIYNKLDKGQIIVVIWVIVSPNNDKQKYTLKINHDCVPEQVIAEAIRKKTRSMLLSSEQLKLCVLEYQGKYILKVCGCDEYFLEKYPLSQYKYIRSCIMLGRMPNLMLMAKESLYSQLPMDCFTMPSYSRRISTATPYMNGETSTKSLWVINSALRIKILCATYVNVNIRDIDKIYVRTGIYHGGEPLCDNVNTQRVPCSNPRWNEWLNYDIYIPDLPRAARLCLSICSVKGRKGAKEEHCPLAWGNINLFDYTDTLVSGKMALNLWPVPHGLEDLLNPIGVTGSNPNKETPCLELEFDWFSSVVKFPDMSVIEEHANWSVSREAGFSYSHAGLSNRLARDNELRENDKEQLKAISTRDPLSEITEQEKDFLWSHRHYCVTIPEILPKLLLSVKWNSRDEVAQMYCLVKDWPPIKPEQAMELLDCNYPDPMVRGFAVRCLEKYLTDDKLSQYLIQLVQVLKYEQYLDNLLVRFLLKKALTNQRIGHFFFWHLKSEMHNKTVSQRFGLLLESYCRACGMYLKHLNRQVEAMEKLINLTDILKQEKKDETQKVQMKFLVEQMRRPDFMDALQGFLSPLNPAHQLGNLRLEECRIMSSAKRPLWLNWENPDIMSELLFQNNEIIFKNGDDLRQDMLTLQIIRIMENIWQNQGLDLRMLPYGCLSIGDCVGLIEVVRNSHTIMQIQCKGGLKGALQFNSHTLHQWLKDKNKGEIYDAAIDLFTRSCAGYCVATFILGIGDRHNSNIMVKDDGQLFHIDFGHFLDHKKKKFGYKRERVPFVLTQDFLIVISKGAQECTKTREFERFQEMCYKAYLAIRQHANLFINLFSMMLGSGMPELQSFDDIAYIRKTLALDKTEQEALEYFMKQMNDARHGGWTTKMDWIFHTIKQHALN
Chain of H1047R PIK3CA enzyme (P27986 whole entry partner): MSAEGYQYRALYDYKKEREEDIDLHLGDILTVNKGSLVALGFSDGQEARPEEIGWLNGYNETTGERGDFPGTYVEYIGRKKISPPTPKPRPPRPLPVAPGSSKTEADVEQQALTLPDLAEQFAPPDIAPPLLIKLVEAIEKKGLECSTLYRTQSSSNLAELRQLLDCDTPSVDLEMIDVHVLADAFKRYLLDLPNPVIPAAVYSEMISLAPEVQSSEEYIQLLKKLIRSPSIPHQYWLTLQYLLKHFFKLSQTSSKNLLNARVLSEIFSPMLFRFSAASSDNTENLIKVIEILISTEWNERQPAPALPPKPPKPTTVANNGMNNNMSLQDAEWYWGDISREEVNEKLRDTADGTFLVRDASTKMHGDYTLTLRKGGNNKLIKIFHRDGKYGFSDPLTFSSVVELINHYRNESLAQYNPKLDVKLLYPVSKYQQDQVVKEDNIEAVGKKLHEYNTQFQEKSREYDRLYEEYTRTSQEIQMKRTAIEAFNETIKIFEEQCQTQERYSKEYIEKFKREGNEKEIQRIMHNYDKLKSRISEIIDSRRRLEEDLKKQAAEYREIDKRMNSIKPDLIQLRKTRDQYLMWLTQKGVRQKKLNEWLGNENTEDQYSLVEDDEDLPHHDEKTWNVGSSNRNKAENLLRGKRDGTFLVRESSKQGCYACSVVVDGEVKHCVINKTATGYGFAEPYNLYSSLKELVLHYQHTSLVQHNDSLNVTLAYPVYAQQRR

Row | SMILES | IC50 (cells) [µM] | IC50 (H1047R PIK3CA enzyme) [µM]
1 | CNC(=O)c1cnc(Nc2ccccc2C)c(NC(=O)c2n[nH]c3ccc(Br)cc23)c1 [I-520] | 10 to 36 | ≤ 0.1
2 | Cc1ccccc1Nc1ncc(C(=O)NCc2cnccc2C(F)(F)F)cc1NC(=O)c1csc2ccccc12 [I-525] | 10 to 36 | ≤ 0.1
3 | COC[C@@H](C)NC(=O)c1cnc(Nc2ccccc2C)c(NC(=O)c2csc3ccccc23)c1 [I-526] | 10 to 36 | 1 to 10
4 | CNC(=O)c1cnc(Nc2ccccc2C)c(NC(=O)c2cc(C#N)cc(C(F)(F)F)c2)c1 [I-527] | 5 to 10 | 0.1 to 0.5
5 | CNC(=O)c1cnc(Nc2ccccc2C)c(NC(=O)c2cccc3[nH]c(C(F)(F)F)nc23)c1 [I-530] | 10 to 36 | 0.1 to 0.5
6 | Cc1ccccc1Nc1ncc(C(=O)NCc2cnn(C(C)C)c2)cc1NC(=O)c1csc2ccccc12 [I-532] | 10 to 36 | 0.1 to 0.5
7 | Cc1ccccc1Nc1ncc(C(=O)N2CC(C#N)C2)cc1NC(=O)c1csc2ccccc12 [I-533] | 10 to 36 | 1 to 10
8 | Cc1ccccc1Nc1ncc(C(=O)NCc2ccc3c(c2)OCCO3)cc1NC(=O)c1csc2ccccc12 [I-534] | 10 to 36 | ≤ 0.1
9 | CNC(=O)c1cnc(Nc2ccccc2C)c(NC(=O)c2cnc(OC)c(C(F)(F)F)c2)c1 [I-535] | 10 to 36 | 1 to 10
10 | COc1ccnc(CNC(=O)c2cnc(Nc3ccccc3C)c(NC(=O)c3csc4ccccc34)c2)c1 [I-538] | 10 to 36 | 0.1 to 0.5
11 | Cc1ccccc1Nc1ncc(C(=O)Nc2ccc3cccnc3c2)cc1NC(=O)c1csc2ccccc12 [I-539] | 36 to 100 | 0.5 to 1
12 | Cc1ccccc1Nc1ncc(C(=O)NCc2nc(C3CC3)no2)cc1NC(=O)c1csc2ccccc12 [I-540] | 1 to 5 | ≤ 0.1
13 | Cc1ccccc1Nc1ncc(C(=O)NC2CCC(F)(F)C2)cc1NC(=O)c1csc2ccccc12 (stereo not shown) [I-544] | 10 to 36 | 0.1 to 0.5
14 | Cc1ccccc1Nc1ncc(C(=O)N[C@H]2CCCOC2)cc1NC(=O)c1csc2ccccc12 [I-545] | 1 to 5 | 0.1 to 0.5
15 | Cc1ccccc1Nc1ncc(C(=O)N[C@H]2CC[C@@H](F)C2)cc1NC(=O)c1csc2ccccc12 [I-546] | 5 to 10 | ≤ 0.1
16 | Cc1ccccc1Nc1ncc(C(=O)N[C@@H]2CC[C@@H](F)C2)cc1NC(=O)c1csc2ccccc12 [I-547] | 5 to 10 | 0.1 to 0.5
17 | Cc1ccccc1Nc1ncc(C(=O)NCc2ccon2)cc1NC(=O)c1csc2ccccc12 [I-560] | 1 to 5 | ≤ 0.1
18 | Cc1ccccc1Nc1ncc(C(=O)NCc2cnc3c(C)cccn23)cc1NC(=O)c1csc2ccccc12 [I-561] | 10 to 36 | 0.1 to 0.5
19 | Cc1ccccc1Nc1ncc(C(=O)NCC2CCN(C)C(=O)C2)cc1NC(=O)c1csc2ccccc12 (stereo not shown) [I-563] | 10 to 36 | 0.1 to 0.5
20 | CNC(=O)c1cnc(Nc2ccccc2C)c(NC(=O)c2ccc3nnc(Br)n3c2)c1 [I-564] | 10 to 36 | 0.5 to 1
21 | Cc1ccccc1Nc1ncc(C(=O)NC2NC(=O)c3ccccc32)cc1NC(=O)c1csc2ccccc12 (stereo not shown) [I-568] | 1 to 5 | ≤ 0.1
22 | Cc1ccccc1Nc1ncc(C(=O)NCC2CCNC(=O)C2)cc1NC(=O)c1csc2ccccc12 (stereo not shown) [I-569] | 10 to 36 | 0.1 to 0.5
23 | Cc1ccccc1Nc1ncc(C(=O)NCCn2ccnn2)cc1NC(=O)c1csc2ccccc12 [I-570] | 10 to 36 | 0.1 to 0.5

Row | SMILES | IC50 (cells) [µM] | IC50 (H1047R PIK3CA enzyme) [µM]
24 | Cc1ccccc1Nc1ncc(C(=O)N[C@H]2CCC(F)(F)C[C@@H]2O)cc1NC(=O)c1csc2ccccc12 [I-571] | 1 to 5 | 0.1 to 0.5
25 | Cc1ccccc1Nc1ncc(C(=O)NCc2ccncn2)cc1NC(=O)c1csc2ccccc12 [I-572] | < 1 | 0.1 to 0.5
26 | Cc1ccccc1Nc1ncc(C(=O)Nc2ncn(C)n2)cc1NC(=O)c1csc2ccccc12 [I-573] | 10 to 36 | 0.5 to 1
27 | Cc1ccccc1Nc1ncc(C(=O)NCCn2nccn2)cc1NC(=O)c1csc2ccccc12 [I-578] | 10 to 36 | 0.1 to 0.5
28 | Cc1cncc(CNC(=O)c2cnc(Nc3ccccc3C)c(NC(=O)c3csc4ccccc34)c2)c1 [I-579] | 5 to 10 | ≤ 0.1
29 | Cc1ccccc1Nc1ncc(C(=O)NCC2(C#N)CC2)cc1NC(=O)c1csc2ccccc12 [I-580] | 1 to 5 | ≤ 0.1
30 | Cc1ccccc1Nc1ncc(C(=O)NC2(C)CC2)cc1NC(=O)c1csc2ccccc12 [I-581] | 1 to 5 | ≤ 0.1
31 | Cc1ccccc1Nc1ncc(C(=O)NCc2nnc3ccccn23)cc1NC(=O)c1csc2ccccc12 [I-582] | 5 to 10 | ≤ 0.1
32 | Cc1ccccc1Nc1ncc(C(=O)NCC2(O)CCOC2)cc1NC(=O)c1csc2ccccc12 (stereo not shown) [I-583] | 10 to 36 | 0.5 to 1
33 | Cc1ccccc1Nc1ncc(C(=O)NC2CCOCC2)cc1NC(=O)c1csc2ccccc12 [I-584] | 5 to 10 | 0.1 to 0.5
34 | Cc1ccccc1Nc1ncc(C(=O)NC2COCC(O)C2)cc1NC(=O)c1csc2ccccc12 (stereo not shown) [I-585] | 10 to 36 | 0.1 to 0.5
35 | Cc1ccccc1Nc1ncc(C(=O)NCC2CCC(O)C2)cc1NC(=O)c1csc2ccccc12 (stereo not shown) [I-588] | 10 to 36 | 0.1 to 0.5
36 | Cc1ccccc1Nc1ncc(C(=O)N[C@@H]2COC[C@@H]2F)cc1NC(=O)c1csc2ccccc12 [I-590] | 5 to 10 | 0.1 to 0.5
37 | Cc1ccccc1Nc1ncc(C(=O)N[C@H]2C[C@@H](C(N)=O)C2)cc1NC(=O)c1csc2ccccc12 [I-591] | 1 to 5 | ≤ 0.1
38 | COCC(=O)N1CCC(NC(=O)c2cnc(Nc3ccccc3C)c(NC(=O)c3csc4ccccc34)c2)CC1 [I-592] | 5 to 10 | 1 to 10
39 | Cc1ccccc1Nc1ncc(C(=O)NCc2nccc3ccccc23)cc1NC(=O)c1csc2ccccc12 [I-593] | 10 to 36 | 0.1 to 0.5
40 | Cc1ccccc1Nc1ncc(C(=O)N[C@@H]2CCO[C@@H]2C)cc1NC(=O)c1csc2ccccc12 [I-594] | 5 to 10 | 0.1 to 0.5
41 | Cc1ccccc1Nc1ncc(C(=O)N[C@H]2CC[C@@H](O)C2)cc1NC(=O)c1csc2ccccc12 [I-596] | 1 to 5 | 0.1 to 0.5
42 | Cc1ccccc1Nc1ncc(C(=O)NCC(=O)N2CCCC2)cc1NC(=O)c1csc2ccccc12 [I-597] | 36 to 100 | 1 to 10
43 | COc1cc(CCNC(=O)c2cnc(Nc3ccccc3C)c(NC(=O)c3csc4ccccc34)c2)ccn1 [I-598] | 5 to 10 | 0.1 to 0.5
44 | Cc1ccccc1Nc1ncc(C(=O)NCC2(O)CC2)cc1NC(=O)c1csc2ccccc12 [I-599] | 5 to 10 | 0.1 to 0.5
45 | Cc1ccccc1Nc1ncc(C(=O)NCc2cn(C)nc2C)cc1NC(=O)c1csc2ccccc12 [I-601] | 5 to 10 | ≤ 0.1
46 | Cc1ccccc1Nc1ncc(C(=O)NCc2cocn2)cc1NC(=O)c1csc2ccccc12 [I-602] | 10 to 36 | 0.1 to 0.5

Row | SMILES | IC50 (cells) [µM] | IC50 (H1047R PIK3CA enzyme) [µM]
47 | Cc1ccccc1Nc1ncc(C(=O)NCC2(O)CCOCC2)cc1NC(=O)c1csc2ccccc12 [I-603] | 10 to 36 | 0.5 to 1
48 | Cc1cc(CNC(=O)c2cnc(Nc3ccccc3C)c(NC(=O)c3csc4ccccc34)c2)no1 [I-604] | 1 to 5 | ≤ 0.1
49 | Cc1ccccc1Nc1ncc(C(=O)NC(C)c2cn[nH]c2)cc1NC(=O)c1csc2ccccc12 (stereo not shown) [I-605] | 1 to 5 | ≤ 0.1
50 | Cc1ccccc1Nc1ncc(C(=O)N2CC(C)C2)cc1NC(=O)c1csc2ccccc12 [I-607] | 5 to 10 | 0.1 to 0.5
51 | Cc1ccccc1Nc1ncc(C(=O)NCC2(S(C)(=O)=O)CCC2)cc1NC(=O)c1csc2ccccc12 [I-608] | 10 to 36 | 0.5 to 1
52 | Cc1ccccc1Nc1ncc(C(=O)Nc2ccc3cn(C)nc3c2)cc1NC(=O)c1csc2ccccc12 [I-609] | 1 to 5 | ≤ 0.1
53 | Cc1ccccc1Nc1ncc(C(=O)NCC(O)C2CCCC2)cc1NC(=O)c1csc2ccccc12 (stereo not shown) [I-610] | 10 to 36 | 0.1 to 0.5
54 | CCn1ccc(C)c(CNC(=O)c2cnc(Nc3ccccc3C)c(NC(=O)c3csc4ccccc34)c2)c1=O [I-611] | 5 to 10 | 0.1 to 0.5
55 | Cc1ccccc1Nc1ncc(C(=O)NC2(C(N)=O)CC2)cc1NC(=O)c1csc2ccccc12 [I-612] | < 1 | 0.1 to 0.5
56 | Cc1ccccc1Nc1ncc(C(=O)N2CC(O)C2)cc1NC(=O)c1csc2ccccc12 [I-613] | 10 to 36 | 0.1 to 0.5
57 | Cc1ccccc1Nc1ncc(C(=O)NC(C)c2nnc3ccccn23)cc1NC(=O)c1csc2ccccc12 (stereo not shown) [I-616] | 1 to 5 | ≤ 0.1
58 | Cc1ccccc1Nc1ncc(C(=O)N[C@H]2COC[C@@H]2O)cc1NC(=O)c1csc2ccccc12 [I-618] | 1 to 5 | 0.1 to 0.5
59 | Cc1ccccc1Nc1ncc(C(=O)N[C@H]2COc3ccccc3C2)cc1NC(=O)c1csc2ccccc12 [I-619] | 36 to 100 | 0.1 to 0.5
60 | Cc1ccccc1Nc1ncc(C(=O)NCC2CCCOC2)cc1NC(=O)c1csc2ccccc12 (stereo not shown) [I-621] | 10 to 36 | 0.1 to 0.5
61 | Cc1ccccc1Nc1ncc(C(=O)N[C@H]2CCOC2)cc1NC(=O)c1csc2ccccc12 [I-622] | 1 to 5 | 0.1 to 0.5
62 | Cc1ccccc1Nc1ncc(C(=O)Nc2cnn(C)c2)cc1NC(=O)c1csc2ccccc12 [I-624] | < 1 | 0.1 to 0.5
63 | Cc1ccn2c(CNC(=O)c3cnc(Nc4ccccc4C)c(NC(=O)c4csc5ccccc45)c3)nnc2c1 [I-625] | 10 to 36 | 0.1 to 0.5
64 | Cc1ccccc1Nc1ncc(C(=O)N[C@@H]2CC[C@@H](O)C2)cc1NC(=O)c1csc2ccccc12 [I-626] | 1 to 5 | 0.1 to 0.5
65 | Cc1ccccc1Nc1ncc(C(=O)N2CCn3nccc32)cc1NC(=O)c1csc2ccccc12 [I-627] | 10 to 36 | 1 to 10
66 | Cc1ccccc1Nc1cccnc1NC(=O)c1csc2ccccc12 [I-635] | 36 to 100 | 0.1 to 0.5
67 | CNC(=O)c1cnc(Nc2ccccc2C)c(NC(=O)Cc2cnc3ccccn23)c1 [I-652] | 10 to 36 | 0.1 to 0.5
68 | CNC(=O)c1cnc(N)c(NC(=O)c2csc3ccccc23)c1 [I-676] | 10 to 36 | 0.5 to 1
